2 compounds from paper PMC12508057, “Discovery of ETI41 and ETI60: novel selective endosomal Toll-like receptor inhibitors for the treatment of autoimmune diseases” (Experimental & Molecular Medicine, 2025) can be followed below.

Each structure is given as a SMILES string. Read-outs that look alike come from different tables or passages of the source. Some results are limits rather than exact numbers.

The target in one data set is T1, murine TLR9 (Mus musculus, UniProt Q9EQU3).
T1 construct: Fc; purchased R&D Systems
T1 sequence (Q9EQU3 with tags, fused parts or gaps limits assumed): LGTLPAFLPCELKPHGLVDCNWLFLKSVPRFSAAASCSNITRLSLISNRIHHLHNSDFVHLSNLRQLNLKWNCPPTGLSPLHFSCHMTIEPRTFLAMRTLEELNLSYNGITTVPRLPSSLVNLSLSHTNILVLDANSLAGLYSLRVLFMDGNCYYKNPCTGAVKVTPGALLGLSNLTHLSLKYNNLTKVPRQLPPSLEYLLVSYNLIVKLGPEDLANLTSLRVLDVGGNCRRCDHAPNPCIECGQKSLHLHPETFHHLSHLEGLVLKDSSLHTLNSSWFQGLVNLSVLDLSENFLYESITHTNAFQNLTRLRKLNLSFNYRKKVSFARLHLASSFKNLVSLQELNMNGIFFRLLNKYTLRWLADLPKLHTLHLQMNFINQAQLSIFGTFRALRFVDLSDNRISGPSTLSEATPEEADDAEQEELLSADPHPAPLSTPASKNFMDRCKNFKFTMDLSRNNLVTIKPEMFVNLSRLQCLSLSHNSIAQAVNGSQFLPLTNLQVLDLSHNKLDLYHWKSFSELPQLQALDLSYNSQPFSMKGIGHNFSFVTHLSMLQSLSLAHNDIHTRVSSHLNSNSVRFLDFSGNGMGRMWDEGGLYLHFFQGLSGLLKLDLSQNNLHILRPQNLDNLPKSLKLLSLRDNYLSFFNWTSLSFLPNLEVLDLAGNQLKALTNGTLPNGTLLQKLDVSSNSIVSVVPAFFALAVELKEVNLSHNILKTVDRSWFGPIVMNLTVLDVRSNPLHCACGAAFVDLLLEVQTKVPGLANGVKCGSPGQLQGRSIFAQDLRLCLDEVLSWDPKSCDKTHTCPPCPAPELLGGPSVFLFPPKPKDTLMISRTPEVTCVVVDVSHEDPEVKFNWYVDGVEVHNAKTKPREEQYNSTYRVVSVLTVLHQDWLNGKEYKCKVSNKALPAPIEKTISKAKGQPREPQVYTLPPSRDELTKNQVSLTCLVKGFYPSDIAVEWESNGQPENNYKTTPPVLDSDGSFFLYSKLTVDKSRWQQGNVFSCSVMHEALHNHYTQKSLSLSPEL
In words: SPR binding to TLR9. On the procedure: Surface plasmon resonance (SPR) analysis was conducted using an SR7500DC SPR System (Reichert) with a CMDH chip for human TLR7 and murine TLR9 (R&D Systems) and a Biacore T200 platform (Cytiva) with a CM5 chip for TLR9–ODN binding. The running buffer contained 0.5% DMSO and phosphate-buffered saline, and 50 mM NaOH was used for regeneration. ETI series compounds were serially diluted from 500 μM and tested for binding affinity. Binding curves were analyzed using Scrubber2 and Biacore T200 evaluation softwares. The dissociation constants (KD) were calculated as KD = kd/ka.
SPR confirmed the binding mechanisms of ETI41 and ETI60 with TLR7 and TLR9, respectively, under three conditions: (a) early endosome (pH 7.4), (b) late endosome without CpG (pH 5.5) and (c) late endosome with CpG (pH 5.5). (a) Both ETI41 and ETI60 were measured for parameters indicating binding affinity, including the KD value presented in Table 3, and were further analyzed under conditions (b) and (c), depending on the presence or absence of ligand, to explain the binding mechanism occurring in TLR9.
On the technique in general: Surface plasmon resonance follows binding to a sensor surface in real time, without labels.

Data set [1] concerns TLR7- and TLR9-dependent downstream signaling. In words: Western blot of TLR7- and TLR9-dependent downstream signaling in RAW 264.7. The data set is classed as cell-based, mouse. The settings on record: RAW 264.7, 5 or 10 μM. On the procedure: RAW 264.7 cells were seeded into 60-mm dishes at 1 × 10^6 cells per dish. After 30 min of treatment with ETI41 or ETI60, the cells were stimulated with 2 μM IMQ (a TLR7 agonist) or 1 μM ODN2395 (a TLR9 agonist). Lysates were prepared using a Mammalian Protein Extraction Kit (Thermo Fisher Scientific) with protease and phosphatase inhibitors. Nuclear proteins were extracted using an NE-PER Nuclear and Cytoplasmic Extraction Kit (Thermo Fisher Scientific). Proteins were quantified using a bicinchoninic acid kit (Sigma-Aldrich), separated by SDS–PAGE and transferred onto nitrocellulose membranes (GE Healthcare). Membranes were incubated with specific primary antibodies and horseradish peroxidase-conjugated secondary antibodies. […] Protein bands were detected using a chemiluminescent substrate (SuperSignal West Pico PLUS; Thermo Fisher Scientific) and visualized using a Fuji LAS-3000 system (Fujifilm).
Fig. 2 ETI41 and ETI60 inhibit TLR7- and TLR9-dependent downstream signaling. a, b Western blot analysis was used to quantify the protein levels of phosphorylated p-ERK, p-JNK, p38, Iκ-Bα and p65. […] Statistical differences between the induced and other cases were analyzed and verified using a one-tailed Student’s t-test (*P < 0.05, **P < 0.01, ***P < 0.001). e–g The TLR7 agonist IMQ (1 μM) was used in 3’ RNA-seq analysis to induce signaling associated with immune responses in RAW 264.7 cells. […]
For orientation: In western blotting, separated proteins are transferred to a membrane and probed.

The test system of a further data set is Daudi cells. In words: Water-soluble tetrazolium assay, cell viability in Daudi. The data set is classed as cell-based. On the procedure: Daudi cells were seeded into 96-well plates at a density of 5 × 10^4 cells per well.
One-tailed paired Student’s t-tests were performed using Microsoft Excel (Microsoft). […] The therapeutic index was calculated as […]. Animal experimental results are expressed as mean ± standard deviation and analyzed using SPSS v.20 (IBM SPSS Statistics). Homogeneity of variance was assessed using Levene’s test.
Data are from at least three independent experiments (n = 3) and statistical differences between the induced case and other cases were analyzed and verified using a one-tailed Student’s t-test (*P < 0.05, **P < 0.01, ***P < 0.001).

[2] abbreviates: acidic pH 5.5 (late endosome), without or with CpG.
The mark [3] stands for this setting: neutral pH 7.4 (early endosome).

On to `Cc1cc2c(N)c3c(nc2n1CCCN(C)C)CCCCCC3` [ETI41], for which, at murine TLR9 (Fc-TLR9, pH 7.4), the kd was determined as 0.191 s⁻¹. In addition, the “SPR binding to TLR9” value is listed as “binding was detected only in the late endosomal state where the natural ligand is present” on murine TLR9 (setting [2]) and “clear binding affinity” on murine TLR9 (setting [3]). Also, the kon at murine TLR9 (pH 7.4, read-out: ka) is 10 M⁻¹ s⁻¹. Further, the “IMQ- or ODN2395-induced phosphorylation of MAPKs (p-ERK, p-JNK, p-p38), nuclear translocation of NF-κB p65, Iκ-Bα degradation and IRF7 expression” value in data set [1] was “inhibited”. Further, the “Cell viability (LD50), cytotoxicity” value in the data set with Daudi cells is recorded as >200,000 nM.

As for `COc1ccc2c3c(N)c4c(nc3n(CCCN(C)C)c2c1)CCCC4` [ETI60], on murine TLR9 (Fc-TLR9, pH 7.4), the Kd – broadly, the equilibrium constant for the complex coming apart – came out at 1500 µM and the kd is 0.106 s⁻¹. Further, the kon at murine TLR9 (Fc-TLR9, pH 7.4, read-out: ka) worked out at 71 M⁻¹ s⁻¹. On murine TLR9 (setting [2]), the “SPR binding to TLR9” value is on record as “binding was detected only in the late endosomal state where the natural ligand is present”. Moreover, the “SPR binding to TLR9” value at murine TLR9 (setting [3]) is “clear binding affinity”. Moreover, the “IMQ- or ODN2395-induced phosphorylation of MAPKs (p-ERK, p-JNK, p-p38), nuclear translocation of NF-κB p65, Iκ-Bα degradation and IRF7 expression” value in data set [1] was “inhibited”. Also, in the data set on Daudi cells, the “Cell viability (LD50), cytotoxicity” value is on record as 38,410 nM.
